ChEMBL document CHEMBL4725265, “Short chain α-pyrones capable of potentiating penicillin G against Pseudomonas aeruginosa” (Bioorg Med Chem Lett, 2020)
Values after ≈ are worked out from the molar mass of the structure shown. Active and inactive are the calls of the source. The rule behind the calls is not given here.

How the values were obtained:
Escherichia coli [1] = assay: Potentiation of penicillin G-induced antibacterial activity against Escherichia coli assessed as penicillin G MIC at 50 uM after 12 to 24 hrs (reference value: 64 microg/ml); assay type: functional; details: time hrs 12-24
Bacillus subtilis [2] = assay: Potentiation of erythromycin-induced antibacterial activity against Bacillus subtilis assessed as fold reduction in erythromycin MIC at 50 uM after 12 to 24 hrs relative to erythromycin MIC alone; assay type: functional; details: time hrs 12-24
Pseudomonas aeruginosa [3] = assay: Potentiation of erythromycin-induced antibacterial activity against Pseudomonas aeruginosa assessed as fold reduction in erythromycin MIC at 50 uM after 12 to 24 hrs relative to erythromycin MIC alone; assay type: functional; details: time hrs 12-24
Pseudomonas aeruginosa [4] = assay: Potentiation of penicillin G-induced antibacterial activity against Pseudomonas aeruginosa assessed as penicillin G MIC at 50 uM after 12 to 24 hrs (Rvb > 128 microg/ml); assay type: functional; details: time hrs 12-24
Staphylococcus aureus [5] = assay: Potentiation of erythromycin-induced antibacterial activity against Staphylococcus aureus assessed as fold reduction in erythromycin MIC at 50 uM after 12 to 24 hrs relative to erythromycin MIC alone; assay type: functional; details: time hrs 12-24
Bacillus subtilis [6] = assay: Potentiation of penicillin G-induced antibacterial activity against Bacillus subtilis assessed as fold reduction in penicillin G MIC at 50 uM after 12 to 24 hrs relative to penicillin G MIC alone; assay type: functional; details: time hrs 12-24
Bacillus subtilis [7] = assay: Potentiation of amoxicillin-induced antibacterial activity against Bacillus subtilis assessed as fold reduction in amoxicillin MIC at 50 uM after 12 to 24 hrs relative to amoxicillin MIC alone; assay type: functional; details: time hrs 12-24
Bacillus subtilis [8] = assay: Potentiation of vancomycin-induced antibacterial activity against Bacillus subtilis assessed as fold reduction in vancomycin MIC at 50 uM after 12 to 24 hrs relative to vancomycin MIC alone; assay type: functional; details: time hrs 12-24
Escherichia coli [9] = assay: Potentiation of vancomycin-induced antibacterial activity against Escherichia coli assessed as vancomycin MIC at 50 uM after 12 to 24 hrs (reference value: 64 microg/ml); assay type: functional; details: time hrs 12-24
Pseudomonas aeruginosa [10] = assay: Potentiation of vancomycin-induced antibacterial activity against Pseudomonas aeruginosa assessed as fold reduction in vancomycin MIC at 50 uM after 12 to 24 hrs relative to vancomycin MIC alone; assay type: functional; details: time hrs 12-24
Staphylococcus aureus [11] = assay: Potentiation of vancomycin-induced antibacterial activity against Staphylococcus aureus assessed as fold reduction in vancomycin MIC at 50 uM after 12 to 24 hrs relative to vancomycin MIC alone; assay type: functional; details: time hrs 12-24
Pseudomonas aeruginosa [12] = assay: Antibacterial activity against Pseudomonas aeruginosa assessed as cell wall perturbation by XTT assay; assay type: functional, organism-based
Escherichia coli [13] = assay: Potentiation of amoxicillin-induced antibacterial activity against Escherichia coli assessed as amoxicillin MIC at 50 uM after 12 to 24 hrs (reference value: 4 microg/ml); assay type: functional; details: time hrs 12-24
Staphylococcus aureus [14] = assay: Potentiation of amoxicillin-induced antibacterial activity against Staphylococcus aureus assessed as amoxicillin MIC at 50 uM after 12 to 24 hrs (reference value: 128 microg/ml); assay type: functional; details: time hrs 12-24
Staphylococcus aureus [15] = assay: Potentiation of erythromycin-induced antibacterial activity against Staphylococcus aureus assessed as erythromycin MIC at 50 uM after 12 to 24 hrs (reference value: 0.5 microg/ml); assay type: functional; details: time hrs 12-24
Staphylococcus aureus [16] = assay: Potentiation of amoxicillin-induced antibacterial activity against Staphylococcus aureus assessed as fold reduction in amoxicillin MIC at 50 uM after 12 to 24 hrs relative to amoxicillin MIC alone; assay type: functional; details: time hrs 12-24
Pseudomonas aeruginosa [17] = assay: Antibacterial activity against Pseudomonas aeruginosa; assay type: functional, organism-based
Escherichia coli [18] = assay: Potentiation of penicillin G-induced antibacterial activity against Escherichia coli assessed as fold reduction in penicillin G MIC at 50 uM after 12 to 24 hrs relative to penicillin G MIC alone; assay type: functional; details: time hrs 12-24
Bacillus subtilis [19] = assay: Potentiation of erythromycin-induced antibacterial activity against Bacillus subtilis assessed as erythromycin MIC at 50 uM after 12 to 24 hrs (reference value: 0.5 microg/ml); assay type: functional; details: time hrs 12-24
Escherichia coli [20] = assay: Potentiation of erythromycin-induced antibacterial activity against Escherichia coli assessed as fold reduction in erythromycin MIC at 50 uM after 12 to 24 hrs relative to erythromycin MIC alone; assay type: functional; details: time hrs 12-24
Pseudomonas aeruginosa [21] = assay: Potentiation of amoxicillin-induced antibacterial activity against Pseudomonas aeruginosa assessed as fold reduction in amoxicillin MIC at 50 uM after 12 to 24 hrs relative to amoxicillin MIC alone; assay type: functional; details: time hrs 12-24
Bacillus subtilis [22] = assay: Potentiation of penicillin G-induced antibacterial activity against Bacillus subtilis assessed as penicillin G MIC at 50 uM after 12 to 24 hrs (reference value: 64 microg/ml); assay type: functional; details: time hrs 12-24
Pseudomonas aeruginosa [23] = assay: Potentiation of penicillin G-induced antibacterial activity against Pseudomonas aeruginosa assessed as fold reduction in penicillin G MIC at 50 uM after 12 to 24 hrs relative to penicillin G MIC alone; assay type: functional; details: time hrs 12-24
Pseudomonas aeruginosa [24] = assay: Potentiation of vancomycin-induced antibacterial activity against Pseudomonas aeruginosa assessed as vancomycin MIC at 50 uM after 12 to 24 hrs (reference value: 1 microg/ml); assay type: functional; details: time hrs 12-24
Staphylococcus aureus [25] = assay: Potentiation of penicillin G-induced antibacterial activity against Staphylococcus aureus assessed as penicillin G MIC at 50 uM after 12 to 24 hrs (reference value: […] microg/ml); assay type: functional; details: time hrs 12-24
Staphylococcus aureus [26] = assay: Antibacterial activity against Staphylococcus aureus; assay type: functional, organism-based
Escherichia coli [27] = assay: Potentiation of vancomycin-induced antibacterial activity against Escherichia coli assessed as fold reduction in vancomycin MIC at 50 uM after 12 to 24 hrs relative to vancomycin MIC alone; assay type: functional; details: time hrs 12-24
Pseudomonas aeruginosa [28] = assay: Antibiofilm activity against Pseudomonas aeruginosa by crystal violet staining based assay; assay type: functional, organism-based
Staphylococcus aureus [29] = assay: Potentiation of penicillin G-induced antibacterial activity against Staphylococcus aureus assessed as fold reduction in penicillin G MIC at 50 uM after 12 to 24 hrs relative to penicillin G MIC alone; assay type: functional; details: time hrs 12-24
Pseudomonas aeruginosa [30] = assay: Potentiation of erythromycin-induced antibacterial activity against Pseudomonas aeruginosa assessed as erythromycin MIC at 50 uM after 12 to 24 hrs (reference value: 0.5 microg/ml); assay type: functional; details: time hrs 12-24
Escherichia coli [31] = assay: Antibacterial activity against Escherichia coli; assay type: functional, organism-based
Bacillus subtilis [32] = assay: Antibacterial activity against Bacillus subtilis; assay type: functional, organism-based
Bacillus subtilis [33] = assay: Potentiation of amoxicillin-induced antibacterial activity against Bacillus subtilis assessed as amoxicillin MIC at 50 uM after 12 to 24 hrs (reference value: 64 microg/ml); assay type: functional; details: time hrs 12-24
Escherichia coli [34] = assay: Potentiation of amoxicillin-induced antibacterial activity against Escherichia coli assessed as fold reduction in amoxicillin MIC at 50 uM after 12 to 24 hrs relative to amoxicillin MIC alone; assay type: functional; details: time hrs 12-24
Escherichia coli [35] = assay: Potentiation of erythromycin-induced antibacterial activity against Escherichia coli assessed as erythromycin MIC at 50 uM after 12 to 24 hrs (reference value: 1 microg/ml); assay type: functional; details: time hrs 12-24
Pseudomonas aeruginosa [36] = assay: Potentiation of amoxicillin-induced antibacterial activity against Pseudomonas aeruginosa assessed as amoxicillin MIC at 50 uM after 12 to 24 hrs (reference value: 2 microg/ml); assay type: functional; details: time hrs 12-24
Staphylococcus aureus [37] = assay: Potentiation of vancomycin-induced antibacterial activity against Staphylococcus aureus assessed as vancomycin MIC at 50 uM after 12 to 24 hrs (reference value: 0.5 microg/ml); assay type: functional; details: time hrs 12-24
Bacillus subtilis [38] = assay: Potentiation of vancomycin-induced antibacterial activity against Bacillus subtilis assessed as vancomycin MIC at 50 uM after 12 to 24 hrs (reference value: 64 microg/ml); assay type: functional; details: time hrs 12-24
Pseudomonas aeruginosa [39] = assay: Antibacterial activity against Pseudomonas aeruginosa GKCW120 harboring P6 deletion mutant assessed as growth inhibition incubated for 24 hrs by micro dilution assay; assay type: functional
Pseudomonas aeruginosa [40] = assay: Antibacterial activity against Pseudomonas aeruginosa PAO1 assessed as growth inhibition by micro dilution assay; assay type: functional
Pseudomonas aeruginosa [41] = assay: Antibacterial activity against Pseudomonas aeruginosa GKCW120 harboring P6 deletion mutant assessed as growth inhibition incubated for 8 hrs by micro dilution assay; assay type: functional

CCCc1c(O)cc(CC)oc1=O
MIC (Escherichia coli [1]): 64 µg/mL | Ratio (Bacillus subtilis [2]): 1 | Ratio (Pseudomonas aeruginosa [3]): 1 | MIC (Pseudomonas aeruginosa [4]): 128 µg/mL | Ratio (Staphylococcus aureus [5]): 1 | Ratio (Bacillus subtilis [6]): 1 | Ratio (Bacillus subtilis [7]): 1 | Ratio (Bacillus subtilis [8]): 1 | MIC (Escherichia coli [9]): 64 µg/mL | Ratio (Pseudomonas aeruginosa [10]): 1 | Ratio (Staphylococcus aureus [11]): 1 | Activity (Pseudomonas aeruginosa [12]): inactive | MIC (Escherichia coli [13]): 4 µg/mL | MIC (Staphylococcus aureus [14]): 128 µg/mL | MIC (Staphylococcus aureus [15]): 0.5 µg/mL | Ratio (Staphylococcus aureus [16]): 1 | IC50 (Pseudomonas aeruginosa [17]): > 1000 µg/mL | MIC (Pseudomonas aeruginosa [17]): > 5000 µM | Ratio (Escherichia coli [18]): 1 | MIC (Bacillus subtilis [19]): 0.5 µg/mL | Ratio (Escherichia coli [20]): 1 | Ratio (Pseudomonas aeruginosa [21]): 1 | MIC (Bacillus subtilis [22]): 64 µg/mL | Ratio (Pseudomonas aeruginosa [23]): >1 | MIC (Pseudomonas aeruginosa [24]): 1 µg/mL | MIC (Staphylococcus aureus [25]): 64 µg/mL | IC50 (Staphylococcus aureus [26]): > 100 µg/mL | MIC (Staphylococcus aureus [26]): > 500 µM | Ratio (Escherichia coli [27]): 1 | Activity (Pseudomonas aeruginosa [28]): inactive | Ratio (Staphylococcus aureus [29]): 1 | MIC (Pseudomonas aeruginosa [30]): 0.5 µg/mL | IC50 (Escherichia coli [31]): > 100 µg/mL | MIC (Escherichia coli [31]): > 500 µM | IC50 (Bacillus subtilis [32]): > 100 µg/mL | MIC (Bacillus subtilis [32]): > 500 µM | MIC (Bacillus subtilis [33]): 64 µg/mL | Ratio (Escherichia coli [34]): 1 | MIC (Escherichia coli [35]): 1 µg/mL | MIC (Pseudomonas aeruginosa [36]): 2 µg/mL | MIC (Staphylococcus aureus [37]): 0.5 µg/mL | MIC (Bacillus subtilis [38]): 64 µg/mL

CC1(C)S[C@@H]2[C@H](NC(=O)Cc3ccccc3)C(=O)N2[C@H]1C(=O)O [PENICILLIN G]
MIC (Pseudomonas aeruginosa [39]): > 128 µg/mL | MIC (Pseudomonas aeruginosa [40]): > 128 µg/mL | MIC (Pseudomonas aeruginosa [41]): 0.5 µg/mL (≈ 1.5 µM)

CCC(=O)c1c(O)cc(CC)oc1=O
MIC (Escherichia coli [1]): 64 µg/mL | Ratio (Bacillus subtilis [2]): 1 | Ratio (Pseudomonas aeruginosa [3]): 1 | MIC (Pseudomonas aeruginosa [4]): 0.5 µg/mL | Ratio (Staphylococcus aureus [5]): 1 | Ratio (Bacillus subtilis [6]): 1 | Ratio (Bacillus subtilis [7]): 1 | Ratio (Bacillus subtilis [8]): 1 | MIC (Escherichia coli [9]): 64 µg/mL | Ratio (Pseudomonas aeruginosa [10]): 1 | Ratio (Staphylococcus aureus [11]): 1 | Activity (Pseudomonas aeruginosa [12]): inactive | MIC (Escherichia coli [13]): 4 µg/mL | MIC (Staphylococcus aureus [14]): 128 µg/mL | MIC (Staphylococcus aureus [15]): 0.5 µg/mL | Ratio (Staphylococcus aureus [16]): 1 | IC50 (Pseudomonas aeruginosa [17]): > 1000 µg/mL | MIC (Pseudomonas aeruginosa [17]): > 5000 µM | Ratio (Escherichia coli [18]): 1 | MIC (Bacillus subtilis [19]): 0.5 µg/mL | Ratio (Escherichia coli [20]): 1 | Ratio (Pseudomonas aeruginosa [21]): 1 | MIC (Bacillus subtilis [22]): 64 µg/mL | Ratio (Pseudomonas aeruginosa [23]): >256 | MIC (Pseudomonas aeruginosa [24]): 1 µg/mL | MIC (Staphylococcus aureus [25]): 64 µg/mL | IC50 (Staphylococcus aureus [26]): > 100 µg/mL | MIC (Staphylococcus aureus [26]): > 500 µM | Ratio (Escherichia coli [27]): 1 | Activity (Pseudomonas aeruginosa [28]): inactive | Ratio (Staphylococcus aureus [29]): 1 | MIC (Pseudomonas aeruginosa [30]): 0.5 µg/mL | IC50 (Escherichia coli [31]): > 100 µg/mL | MIC (Escherichia coli [31]): > 500 µM | IC50 (Bacillus subtilis [32]): > 100 µg/mL | MIC (Bacillus subtilis [32]): > 500 µM | MIC (Bacillus subtilis [33]): 64 µg/mL | Ratio (Escherichia coli [34]): 1 | MIC (Escherichia coli [35]): 1 µg/mL | MIC (Pseudomonas aeruginosa [36]): 2 µg/mL | MIC (Staphylococcus aureus [37]): 0.5 µg/mL | MIC (Bacillus subtilis [38]): 64 µg/mL
